Results taken from article PMC7339578, “Multiple circulating alkaloids and saponins from intravenous Kang-Ai injection inhibit human cytochrome P450 and UDP-glucuronosyltransferase isozymes: potential drug–drug interactions” (Chinese Medicine, 2020).
Read-outs that look alike come from different tables or passages of the source.

Tests used:
[1] = Protein binding assay (equilibrium dialysis); type: in vitro ADME, rat; conditions: rat plasma; equilibrium dialysis 24 h, 37 °C; 2 μmol/L alkaloids, 4 μmol/L saponins; read-out: fu-plasma (unbound fraction)
In short: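 Rat plasma binding was measured by equilibrium dialysis (12–14 kDa cutoff membrane), equilibrated 24 h at 37 °C and 55 rpm. Alkaloids were tested at 2 μmol/L and saponins at 4 μmol/L. Unbound fraction = dialysate concentration/post-dialysis plasma concentration × 100%.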

UGT2B7 = target: T1, UGT2B7 (Homo sapiens, UniProt P16662); assay: Inhibition of expressed UGT2B7 (probe 4-MU); type: in vitro ADME; conditions: recombinant isozyme; mean ± SD of triplicate; unit not given (IC50 classes in μM); read-out: IC50 towards UGT2B7
T1 sequence (P16662 24-529): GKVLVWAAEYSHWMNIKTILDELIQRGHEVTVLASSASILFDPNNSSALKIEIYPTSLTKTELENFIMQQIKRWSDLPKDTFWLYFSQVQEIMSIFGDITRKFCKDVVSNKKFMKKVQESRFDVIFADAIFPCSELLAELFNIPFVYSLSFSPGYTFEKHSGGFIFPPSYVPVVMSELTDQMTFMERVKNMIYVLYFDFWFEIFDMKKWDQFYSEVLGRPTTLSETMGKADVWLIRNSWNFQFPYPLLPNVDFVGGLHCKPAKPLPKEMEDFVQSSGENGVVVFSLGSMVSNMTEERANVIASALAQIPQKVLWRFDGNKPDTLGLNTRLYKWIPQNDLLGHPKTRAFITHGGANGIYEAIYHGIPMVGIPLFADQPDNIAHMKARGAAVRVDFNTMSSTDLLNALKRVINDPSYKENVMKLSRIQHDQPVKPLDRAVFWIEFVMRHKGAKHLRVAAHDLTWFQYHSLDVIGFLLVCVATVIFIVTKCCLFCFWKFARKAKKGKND
Procedure: (§1) After centrifugation (13,800g, 10 min), the supernatant (8 μL) was obtained for determination by UHPLC system.
(§2) Similarly, β-estradiol (60 μM), propofol (40 μM) and 4-MU (350 μM) were typically used as the substrates for UGT1A1, 1A9 and 2B7, respectively. After optimization of incubation conditions (Additional file 1: Fig. S2), the protein concentrations for UGT1A1, 1A9, and 2B7 were 0.125, 0.05, and 0.05 mg/mL, respectively.

UGT1A1 = target: T2, UGT1A1 (Homo sapiens, UniProt P22309); assay: Inhibition of expressed UGT1A1 (probe β-estradiol); type: in vitro ADME; conditions: recombinant isozyme; mean ± SD of triplicate; unit not given (IC50 classes in μM); read-out: IC50 towards UGT1A1
T2 sequence (P22309 26-533): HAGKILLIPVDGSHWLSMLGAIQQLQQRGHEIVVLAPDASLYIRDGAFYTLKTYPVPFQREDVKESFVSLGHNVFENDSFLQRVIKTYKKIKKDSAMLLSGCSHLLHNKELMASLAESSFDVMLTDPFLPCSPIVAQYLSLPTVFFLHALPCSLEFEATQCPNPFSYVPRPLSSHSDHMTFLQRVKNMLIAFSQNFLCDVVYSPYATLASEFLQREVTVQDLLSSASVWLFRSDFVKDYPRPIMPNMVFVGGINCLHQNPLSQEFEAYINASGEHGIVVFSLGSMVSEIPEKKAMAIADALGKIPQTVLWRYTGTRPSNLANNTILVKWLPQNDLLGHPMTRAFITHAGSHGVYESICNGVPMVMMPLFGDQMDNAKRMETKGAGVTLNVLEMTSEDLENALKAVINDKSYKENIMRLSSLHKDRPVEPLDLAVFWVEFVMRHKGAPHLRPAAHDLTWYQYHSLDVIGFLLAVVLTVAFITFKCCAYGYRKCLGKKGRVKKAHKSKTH
Procedure: as §1, §2

CYP2C9 = CYP2C9 (Homo sapiens, UniProt P11712); assay: Inhibition of recombinant CYP2C9 (probe tolbutamide); type: in vitro ADME; conditions: for IC50: read-out: IC50 towards CYP2C9
Procedure: In this study, phenacetin (100 μM), coumarin (100 μM), bupropion (100 μM), paclitaxel (60 μM), tolbutamide (200 μM), mephenytoin (100 μM), chlorzoxazone (200 μM) and nifedipine (40 μM) have been used as the probe substrates for CYP1A2, 2A6, 2B6, 2C8, 2C9, 2C19, 2E1 and 3A4, respectively.

[2] = Stability tests of analytes in rat plasma QC samples; type: in vitro ADME; conditions: rat plasma
Procedure: […] The dilution integrity was investigated by analyzing six replicate samples with each analyte, and each analyte were diluted 10-fold with blank rat matrix. Furthermore, the diluted samples were analyzed using freshly prepared calibration curve to calculate RE and RSD, which should be no more than ± 15% as criterion.

Chain of CYP2C9 (P11712 whole entry): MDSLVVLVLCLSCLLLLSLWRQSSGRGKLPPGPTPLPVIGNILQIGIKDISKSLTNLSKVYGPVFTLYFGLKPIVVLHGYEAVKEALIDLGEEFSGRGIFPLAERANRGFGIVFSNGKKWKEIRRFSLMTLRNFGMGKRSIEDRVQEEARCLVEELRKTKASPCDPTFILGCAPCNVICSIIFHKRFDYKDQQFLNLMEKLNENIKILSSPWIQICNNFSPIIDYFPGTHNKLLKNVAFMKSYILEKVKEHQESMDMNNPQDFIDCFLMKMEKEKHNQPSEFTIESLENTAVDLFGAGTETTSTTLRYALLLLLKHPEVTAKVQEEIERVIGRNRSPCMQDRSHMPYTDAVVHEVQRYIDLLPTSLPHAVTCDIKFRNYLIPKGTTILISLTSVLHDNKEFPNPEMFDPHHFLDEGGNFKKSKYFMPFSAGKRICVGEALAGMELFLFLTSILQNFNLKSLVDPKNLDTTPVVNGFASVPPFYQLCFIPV

CC(C)=CCC[C@](C)(O[C@@H]1O[C@H](CO[C@@H]2O[C@H](CO)[C@@H](O)[C@H](O)[C@H]2O)[C@@H](O)[C@H](O)[C@H]1O)[C@H]1CC[C@]2(C)[C@@H]1[C@H](O)C[C@@H]1[C@@]3(C)CC[C@H](O[C@@H]4O[C@H](CO)[C@@H](O)[C@H](O)[C@H]4O[C@@H]4O[C@H](CO)[C@@H](O)[C@H](O)[C@H]4O)C(C)(C)[C@@H]3CC[C@]12C [Compound D5, Ginsenoside Rb1]
fraction unbound at 24 h [1]: 0.0096 ± 0.0009
IC50 (UGT2B7): > 100 µM
IC50 (UGT1A1): > 100 µM
inhibition type (smallest AIC and SC) (CYP2C9; CYP2C9): Noncompetitive inhibition
Ki (CYP2C9; CYP2C9, competitive model): 8.2 ± 1 µM
Ki (CYP2C9; CYP2C9, mixed-type model): 18.8 ± 4.3 µM
α (CYP2C9; CYP2C9, mixed-type model): 0.7 ± 0.3
Ki (CYP2C9; CYP2C9, noncompetitive model): 16.1 ± 0.9 µM
Cmax/Ki ([I]/Ki) (CYP2C9; CYP2C9, selected model, rat plasma Cmax): 0.03
IC50 (CYP2C9; recombinant isozyme, mean ± SD of triplicate, unit not given (IC50 classes in μM)): 8.8 ± 3.2 µM
IC50 (CYP2C9; tolbutamide 200 μM): 8.81 µM
At -80 °C for 48 h, Mean±SD ([2]; nominal conc. 20 nM): 20.64 ± 1.63 nM
At -80 °C for 48 h, RE ([2]; nominal conc. 20 nM): 8.70%
Extracted samples at 8 °C for 18 h, Mean±SD ([2]; nominal conc. 20 nM): 17.96 ± 0.32 nM
Extracted samples at 8 °C for 18 h, RE ([2]; nominal conc. 20 nM): -11.74%
Short-term stability at room temperature for 6 h, Mean±SD ([2]; nominal conc. 20 nM): 20.30 ± 1.81 nM
Short-term stability at room temperature for 6 h, RE ([2]; nominal conc. 20 nM): 9.00%
Three freeze-thaw cycles (-80 °C ↔ 23 °C), Mean±SD ([2]; nominal conc. 20 nM): 19.99 ± 1.88 nM
Three freeze-thaw cycles (-80 °C ↔ 23 °C), RE ([2]; nominal conc. 20 nM): -10.85%
At -80 °C for 48 h, Mean±SD ([2]; nominal conc. 100 nM): 94.32 ± 8.04 nM
At -80 °C for 48 h, RE ([2]; nominal conc. 100 nM): -13.46%
Extracted samples at 8 °C for 18 h, Mean±SD ([2]; nominal conc. 100 nM): 101.02 ± 12.87 nM
Extracted samples at 8 °C for 18 h, RE ([2]; nominal conc. 100 nM): -13.83%
Short-term stability at room temperature for 6 h, Mean±SD ([2]; nominal conc. 100 nM): 91.65 ± 3.42 nM
Short-term stability at room temperature for 6 h, RE ([2]; nominal conc. 100 nM): -12.30%
Three freeze-thaw cycles (-80 °C ↔ 23 °C), Mean±SD ([2]; nominal conc. 100 nM): 108.29 ± 6.26 nM
Three freeze-thaw cycles (-80 °C ↔ 23 °C), RE ([2]; nominal conc. 100 nM): 12.24%
At -80 °C for 48 h, Mean±SD ([2]; nominal conc. 400 nM): 428.49 ± 29.97 nM
At -80 °C for 48 h, RE ([2]; nominal conc. 400 nM): 12.25%
Extracted samples at 8 °C for 18 h, Mean±SD ([2]; nominal conc. 400 nM): 409.55 ± 29.87 nM
Extracted samples at 8 °C for 18 h, RE ([2]; nominal conc. 400 nM): 9.12%
Short-term stability at room temperature for 6 h, Mean±SD ([2]; nominal conc. 400 nM): 388.96 ± 18.81 nM
Short-term stability at room temperature for 6 h, RE ([2]; nominal conc. 400 nM): -6.00%
Three freeze-thaw cycles (-80 °C ↔ 23 °C), Mean±SD ([2]; nominal conc. 400 nM): 441.95 ± 3.33 nM
Three freeze-thaw cycles (-80 °C ↔ 23 °C), RE ([2]; nominal conc. 400 nM): 11.44%
